Test results as given in publication PMC11878344 (Angewandte Chemie (International Ed. in English), 2025).
Where two headings read alike, the source gives them in different places.

Key:
human MAGL = target: T1, human MAGL (Homo sapiens, UniProt Q99685); experiment: In vitro MAGL inhibition assay (2-AG hydrolysis followed by mass spectrometry); type: biochemical
T1 sequence (Q99685 1-303): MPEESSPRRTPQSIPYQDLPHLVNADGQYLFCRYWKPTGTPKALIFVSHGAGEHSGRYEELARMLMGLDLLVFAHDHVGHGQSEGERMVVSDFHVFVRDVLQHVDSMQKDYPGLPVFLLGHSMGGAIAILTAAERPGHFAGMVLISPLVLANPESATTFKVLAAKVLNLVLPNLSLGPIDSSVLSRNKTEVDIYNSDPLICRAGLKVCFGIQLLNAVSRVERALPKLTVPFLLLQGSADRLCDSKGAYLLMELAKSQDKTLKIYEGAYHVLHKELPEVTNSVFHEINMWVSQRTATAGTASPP
Procedure: (§1) 4. Experimental Details of Biochemical Assays and Crystal Structure
(§2) In Vitro MAGL Inhibition Assay
(§3) Compounds were profiled for MAGL inhibitory activity by determining the enzymatic activity by following the hydrolysis of the natural substrate 2-arachidonoylglycerol (2-AG), resulting in arachidonic acid, which can be followed by mass spectrometry. The 2-AG assay was carried out in 384 well assay plates (PP, Greiner Cat# 784201) in a total volume of 20 µL. Compound dilutions were made in 100% DMSO (VWR Chemicals 23500.297) in a polypropylene plate in 3-fold dilution steps to give a final concentration range in the assay from 12.5 µM to 0.8 pM. 0.25µL compound dilutions (100% DMSO) were added to 9 µL MAGL in assay buffer (50 mM TRIS (GIBCO, 15567-027), 1 mM EDTA (Fluka, 03690-100 mL), 0.01% (v/v) Tween. After shaking, the plate was incubated for 15 min at RT. To start the reaction, 10 µL 2-arachidonoylglycerol in assay buffer was added. The final concentrations in the assay were 50 pM MAGL and 8 µM 2-arachidonoylglyerol. After shaking and 30 min incubation at RT, the reaction was quenched by the addition of 40µL of ACN containing 4 µM of d8-arachidonic acid. The amount of arachidonic acid was traced by an online SPE system (Agilent Rapidfire) coupled to a triple quadrupole mass spectrometer (Agilent 6460). A C18 SPE cartridge (G9205A) was used in an ACN/water liquid setup. The mass spectrometer was operated in negative electrospray mode following the mass transitions 303.1 → 259.1 for arachidonic acid and 311.1 → 267.0 for d8-arachidonic acid. The activity of the compounds was calculated based on the ratio of intensities [arachidonic acid / d8- […]
(§4) This assay was performed as first described before.[39] […]

mouse MAGL = target: T2, mouse MAGL (Mus musculus, UniProt O35678); experiment: as above; type: biochemical
T2 sequence (O35678 1-303): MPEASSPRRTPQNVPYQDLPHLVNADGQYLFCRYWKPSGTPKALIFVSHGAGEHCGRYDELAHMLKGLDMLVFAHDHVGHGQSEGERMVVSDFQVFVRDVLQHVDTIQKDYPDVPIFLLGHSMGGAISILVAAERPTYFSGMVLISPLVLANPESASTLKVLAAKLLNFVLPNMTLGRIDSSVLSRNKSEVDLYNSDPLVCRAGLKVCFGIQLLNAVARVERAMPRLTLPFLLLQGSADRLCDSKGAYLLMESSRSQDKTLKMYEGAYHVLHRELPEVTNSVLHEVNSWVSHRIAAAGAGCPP
Procedure: as §1, §2, §3, §4

[1] = target: T3, NanoLuc luciferase MAGL fusion protein in HEK293A cells (Homo sapiens, UniProt Q99685); experiment: Cellular MAGL NanoBRET target engagement assay; type: cell-based
T3 construct: expressed in transfected cells
T3 sequence (Q99685 1-303): T1 sequence (Q99685 1-303)
Procedure: We, therefore, confirmed cellular MAGL target engagement in a nanoBRET assay using live HEK293 cells.[39] […] To overcome the low cellular potency of 4, we exploited the modular construction principle to modulate unfavorable physicochemical properties and investigated less polar, privileged head groups[23, 33, 40] (Supporting Information Table S4). […]
This assay was performed as first described before.[39]
Compounds were profiled by a novel cellular MAGL NanoBRET™ Target Engagement assay, which measures the apparent affinity of test compounds by competitive displacement of a Roche-developed Tracer (WO2021058443, Example 21)[21], reversibly bound to a NanoLuc® luciferase MAGL fusion protein in cells.
A HEK293A stable cell line expressing NanoLuc_MAGL was established at Roche and assigned as HEK293A_NanoLuc_MAGL clone #43. A fixed concentration of tracer is added to cells expressing the NanoLuc®_MAGL fusion protein to generate a BRET reporter complex. The introduction of competing compounds results in a dose-dependent decrease in NanoBRET™ energy transfer, which allows quantification of the intracellular affinity of the target protein for the […]
HEK293A_NanoLuc_MAGL clone #43 cells were cultured in DMEM (Gibco 31966) with 10% FBS and 800 ug/ml G418. The NanoBRET assay was performed by seeding 5000 cells/well in Costar low-volume white 384-well plate in assay buffer (1% FBS in HBSS), followed by adding 50 nM final concentration of tracer and serial dilutions of test compounds. After 2 hours of incubation, Nanoluciferase substrates and extracellular inhibitors were added following the manufacturer's protocol (Promega, #N2520), and the NanoBRET signaling were quantified with the Paradigm

MAGL = tested on: MAGL; design: method as in PMID 35089028, PMID 34764251, PMID 34328319, PMID 29498843; conditions: known MAGL ligands of Figure 1; cited from earlier work
Cyno MAGL = Cyno MAGL (Macaca fascicularis, UniProt A0A2K5V664); experiment: In vitro MAGL inhibition assay; type: biochemical, cynomolgus monkey; conditions: Supporting Information Table S4
Procedure: as §1, §2
Compounds were profiled for MAGL inhibitory activity by determining the enzymatic activity by following the hydrolysis of the natural substrate 2-arachidonoylglycerol (2-AG), resulting in arachidonic acid, which can be followed by mass spectrometry. The 2-AG assay was carried out in 384 well assay plates (PP, Greiner Cat# 784201) in a total volume of 20 µL. Compound dilutions were made in 100% DMSO (VWR Chemicals 23500.297) in a polypropylene plate in 3-fold dilution steps to give a final concentration range in the assay from 12.5 µM to 0.8 pM. […] The activity of the compounds was calculated based on the ratio of intensities [arachidonic acid / d8- […]

[2] = Fluorescence excitation/absorption and emission maxima; type: physicochemical; conditions: PBS pH 7.4
Description: Figure S8. Fluorescence excitation and emission spectra of the utilized fluorescent reporters in PBS pH 7.4. Spectra l differences between probes carrying the same fluorophore were […]
Table S6. Fluorescence excitation, emission maxima, and Stokes-shift in PBS pH 7.4 for the used fluorophores, respectively. difference s between probes with the same fluorophore were […]
λmax Excitation [nm] λmax Emission [nm] Stokes-shift [nm]
(1 picture or pasted object on this page, not shown here)

[3] = Supporting Information Tables S1-S5, read-out: IC50 hMAGL
[4] = Supporting Information Tables S1-S5, read-out: IC50 mMAGL
[5] = Table 1, n=1 to 3, read-out: hMAGL IC50
[6] = Table 1, n=1 to 3, read-out: mMAGL IC50
[7] = Table 1, transfected HEK293 cells, n=1 to 3, read-out: HEK293 nanoBRET IC50
[8] = Table 2, mean of three independent measurements ± SD, read-out: hMAGL IC50±SD
[9] = Table 2, mean of three independent measurements ± SD, read-out: mMAGL IC50±SD
[10] = Table 2, mean of three independent measurements ± SD, read-out: HEK 293 nanoBRET IC50±SD

Chain of Cyno MAGL (A0A2K5V664 entry or part of it): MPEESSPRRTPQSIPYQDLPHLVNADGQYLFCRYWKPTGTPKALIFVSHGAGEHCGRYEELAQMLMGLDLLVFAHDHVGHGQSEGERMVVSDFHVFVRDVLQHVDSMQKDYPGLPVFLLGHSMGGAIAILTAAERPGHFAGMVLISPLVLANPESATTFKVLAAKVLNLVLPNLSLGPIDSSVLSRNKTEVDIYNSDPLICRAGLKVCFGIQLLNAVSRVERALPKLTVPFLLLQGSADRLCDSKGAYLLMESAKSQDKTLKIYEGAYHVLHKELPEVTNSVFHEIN

Row | Structure (SMILES) | IC50 (human MAGL; [3]) [nM] | IC50 (mouse MAGL; [4]) [nM] | IC50 (human MAGL; [5]) [nM] | IC50 (mouse MAGL; [6]) [nM] | IC50 [1, 7] [nM] | further results
1 | O=C(NCCOc1ccccc1COCC1CN(C(=O)OC(C(F)(F)F)C(F)(F)F)C1)OCc1ccccc1 [Compound 7] |  |  | 0.65 | 0.85 | 222 | 
2 | Cc1ccc(C(c2ccccc2)C2CCN(C(=O)N3CCC4OCC(=O)NC4C3)CC2)cc1 (stereo not drawn) [Compound 85] |  |  |  |  |  | IC50 (MAGL): 0.1 nM
3 | O=C1NC2(CO1)CN(C(=O)N1CC(COCc3ccccc3OCCNc3ccc([N+](=O)[O-])c4nonc34)C1)C2 [Compound 6] |  |  | 0.72 | 1.03 | 318 | 
4 | C#CCCCC(=O)NCCOc1ccccc1CC1CC2(C1)CN(C(=O)OC(C(F)(F)F)C(F)(F)F)C2 [Compound 13] |  |  |  |  |  | IC50 (human MAGL; [8]): 0.14 ± 0.04 nM; IC50 (mouse MAGL; [9]): 0.13 ± 0.05 nM; IC50 [1, 10]: 99 ± 23 nM
5 | O=C(NCCCCCOc1ccccc1CC1CC2(C1)CN(C(=O)O[C@H](CO)C(F)(F)F)C2)O[C@H]1CC/C=C/CCC1 [Compound 14] |  |  |  |  |  | IC50 (human MAGL; [8]): 0.31 ± 0.13 nM; IC50 (mouse MAGL; [9]): 0.42 ± 0.17 nM; IC50 [1, 10]: 1250 ± 507 nM
6 | O=C(NCCOc1ccccc1COCC1CN(C(=O)N2CC3(COC(=O)N3)C2)C1)OCc1ccccc1 [Compound 5] |  |  | 0.29 | 0.59 | 61 | IC50 (Cyno MAGL): 0.094 nM
7 | O=C1NC2(CO1)CN(C(=O)N1CC3(CC(Cc4ccccc4OCCNc4ccc([N+](=O)[O-])c5c4NON5)C3)C1)C2 [Compound 8] | 0.124 | 0.138 | 0.09 | 0.11 | 307 | λmax Em (fluorescence emission maximum) [2]: 554 nm; λmax Ex (fluorescence excitation maximum) [2]: 479 nm; IC50 (human MAGL; [8]): 0.09 ± 0.03 nM; IC50 (mouse MAGL; [9]): 0.12 ± 0.04 nM; IC50 [1, 10]: 308 ± 114 nM
8 | O=C1CO[C@H]2CCN(C(=O)N3CC(COCc4cccc(OCCNC(=O)OCc5ccccc5)c4)C3)C[C@H]2N1 [Compound 2] | 31 | 97 | 30.8 | 97.4 | 406 | 
9 | O=C1CO[C@H]2CCN(C(=O)N3CC(COCc4ccccc4OCCNC(=O)OCc4ccccc4)C3)C[C@H]2N1 [Compound 3] | 2 | 5 | 2.14 | 5.41 | 141 | 
10 | O=C1CO[C@H]2CCN(C(=O)N3CC(COCc4ccccc4)C3)C[C@H]2N1 [Compound 1] |  |  | 379 | 526 | > 10000 | 

Further lines, with some results ahead:

Row | IC50 (human MAGL; [3]) [nM] | IC50 (mouse MAGL; [4]) [nM] | IC50 (human MAGL; [5]) [nM] | IC50 (mouse MAGL; [6]) [nM] | IC50 [1, 7] [nM] | Structure (SMILES) | further results
11 | 28 | 76 |  |  |  | O=C1CO[C@H]2CCN(C(=O)N3CC4(CC(OCc5cccc(OCCNC(=O)OCc6ccccc6)c5)C4)C3)C[C@H]2N1 [Compound S11] | 
12 | 44 | 38 |  |  |  | O=C1CO[C@H]2CCN(C(=O)N3CC(OCc4cccc(OCCNC(=O)OCc5ccccc5)c4)C3)C[C@H]2N1 [Compound S9] | 
13 | 11 | 38 |  |  |  | O=C1CO[C@H]2CCN(C(=O)N3CC4(CC(OCc5ccccc5OCCNC(=O)OCc5ccccc5)C4)C3)C[C@H]2N1 [Compound S3] | 
14 | 3 | 7 |  |  |  | O=C1CO[C@H]2CCN(C(=O)N3CC(COCc4ccccc4OCCCNC(=O)OCc4ccccc4)C3)C[C@H]2N1 [Compound S7] | 
15 | 70 |  |  |  |  | O=C1CO[C@H]2CCN(C(=O)N3CC(OCc4ccccc4OCCNC(=O)OCc4ccccc4)C3)C[C@H]2N1 [Compound S1] | 
16 | 97 | 315 |  |  |  | O=C1CO[C@H]2CCN(C(=O)N3C[C@@H]4C(COCc5ccccc5OCCNC(=O)OCc5ccccc5)[C@@H]4C3)C[C@H]2N1 (stereo partly drawn) [Compound S6] | 
17 | 7 | 21 |  |  |  | O=C1CO[C@H]2CCN(C(=O)N3CCC4(CC3)CC(OCc3ccccc3OCCNC(=O)OCc3ccccc3)C4)C[C@H]2N1 [Compound S5] | 
18 | 9.2 | 66 |  |  |  | O=C(NCCOc1ccccc1COCC1CN(C(=O)CC[C@@H]2COC(=O)N2)C1)OCc1ccccc1 [Compound S19] | 
19 | 7.5 | 35 |  |  |  | O=C1COc2ccc(C(=O)N3CC(COCc4ccccc4OCCNC(=O)OCc4ccccc4)C3)cc2N1 [Compound S18] | 
20 | 15 | 38 |  |  |  | O=C1CO[C@H]2CCN(C(=O)N3CC4(CCC(OCc5ccccc5OCCNC(=O)OCc5ccccc5)CC4)C3)C[C@H]2N1 [Compound S4] | 
21 | 46 | 144 |  |  |  | O=C1CO[C@H]2CCN(C(=O)N3CC(COCc4ccccc4OCCCCCNC(=O)OCc4ccccc4)C3)C[C@H]2N1 [Compound S8] | 
22 | 0.122 | 0.119 |  |  |  | CN1/C(=C\C=C\C2=[N+](CCCCCC(=O)NCCOc3ccccc3CC3CC4(C3)CN(C(=O)N3CC5(COC(=O)N5)C3)C4)c3ccccc3C2(C)C)C(C)(C)c2ccccc21 [Compound S21] | 
